{"source": "patent US7288566B2", "about": "“N-hydroxyformamidine derivatives” (Taisho Pharmaceutical Co., Ltd., priority 2002, dated 2007)", "target": "Human Kidney Microsome-derived 20-HETE-producing Enzyme", "test": "Inhibitory effect against human kidney microsome-derived 20-HETE-producing enzyme", "type": "biochemical", "settings": "human kidney microsomal fraction, tritium-arachidonic acid substrate, NADPH, 37° C. for 1.5 hours, pH 7.4; read-out: IC50 (50% inhibition of 20-HETE production)", "method": "Inhibitory Effect Against Human Kidney Microsome-derived 20-HETE-producing Enzyme\nThe compounds listed in the table above were tested for their inhibitory effect against 20-HETE production.\nThis test was performed as described in J. Pharmacol. Exp. Ther., vol. 268, p. 474, 1994.\nA test drug solution adjusted with DMSO to 1 μM was added to 50 mM 3-morpholinopropanesulfonate (MOPS) buffer (pH 7.4) containing 5 mM magnesium chloride and 1 mM ethylenediaminetetraacetic acid disodium salt (EDTA). The resulting mixture was further supplemented with a human kidney microsomal fraction (Human Cell Culture Center, Anatomic Gift Foundation) as an enzyme source, [5,6,8,9,11,12,14,15]tritium-arachidonic acid as a substrate, and NADPH as a coenzyme, followed by reaction at 37° C. for 1.5 hours. After addition of formic acid to stop the reaction, the reaction mixture was supplemented with acetonitrile (final concentration: 50%). The level of 20-HETE production was measured by high performance liquid chromatography using an ODS column (Biosil C18, BioRad Laboratories) and a radioisotope detector. Assuming that the level of 20-HETE production in the absence of a test compound was set to 100%, the concentration required for the test compound to cause 50% inhibition of 20-HETE production was calculated (IC50 value)."}
{"smiles": "CN(C)CC(C)(C)CCc1ccc(N/C=N/O)cc1", "note": "[Example 1, N-[4-(4-N,N-dimethylamino-3,3-dimethyl-butyl)phenyl]-N′-hydroxyformamidine]", "values": [{"measurement": "IC50", "result": 10.5, "unit": "nM"}]}
